Experimental data: article PMC11881437 (Molecular Medicine, 2025)

Key:
[1] = test system: VEGFA; assay: ELISA of VEGFA secreted into conditioned medium of CES; format: cell-based, human
Method: HCT116 CRC cells were grown in ultra-low attachment plate in 3dGROTM Spheroid Medium (Sigma-Aldrich, USA) for 7 days. Spheroids enriched with CSCs were considered as CSC enriched spheres (CESs) or commonly referred as tumorospheres. After 7 days, tumorospheres were subjected to different treatments for 24 h, as per experimental protocol. Media of tumorospheres of all the treatment groups were collected, centrifuged to remove the cell debris and suspended spheres, supernatants were collected and vacuum concentrated. These supernatants were referred as conditioned medium (CM) and were stored at - 20 °C until use. Concentration of the secreted VEGFA was measured using the ELISA kit according to the manufacturer's instruction ([…] BioSystems, India) in CM of CESs as well as in the media of transfected and non-transfected HCT116.

[2] = test system: OCT4, NANOG and SOX2; assay: Western blot of stemness factors in sorted CD44+/CD133+ cells; format: cell-based, human; details: 24 h, compared to 5FU treated group
Text: CD44^+/CD133^+ cells were isolated using MACS LS column (Miltenyi Biotec, USA) after leveled with CD44 and CD133 antibody conjugated with microbeads (Miltenyi Biotec, USA) by following manufacture’s protocol and subjected to further analysis. Cells expressing both CD44 and CD133 were isolated using magnetic cell sorter (MACS) (Guerriero et al. [2017]).
Protein samples were extracted from treated and untreated cells and subjected to western blot analysis by standard protocol (Bhowmik et al. [2013]). Cells were incubated with Brefeldin A (10 µg/ml) for 4 h before harvesting to determine VEGFA expression. Briefly, cells were lysed with RIPA buffer [50 mmol/L Tris–HCl (pH 7.8), 150 mmol/L NaCl, 1% Triton X-100, 0.1% SDS, 0.5% sodium deoxycholate, and 1 mmol/L EDTA] containing complete protease inhibitor cocktail. Equal amount of protein was electrophoresed on SDS-PAGE and electro transferred onto polyvinylidene difluoride (PVDF) membranes using Bio-Rad mini gel apparatus. […] Signals were detected with the ECL system (Promega, USA) and images were captured in iBright™ CL1500 Imaging System.

[3] = test system: HIF1α, VEGFA; assay: Western blot and immunocytochemistry in HIF1α transfected HCT116 cells; format: cell-based, human
Method: HCT116 cells were transiently transfected with HA-HIF1α-pcDNA3 plasmid (Addgene, USA, Plasmid #18949) by using lipofectamineTM 2000 (Thermo Fisher Scientific, USA) according to the manufacturer’s instructions. After 24 h of transfection, those cells were subjected to various experiments.

[4] = parameters: method as in Tan et al. [2013]; Chagas et al. [2020]; Zhang et al. [2007]; details: ref Tan et al. [2013]; Chagas et al. [2020]; Zhang et al. [2007]; cited from earlier work

| Structure (SMILES) | VEGFA secreted into CM of CES [1] | protein expression of OCT4, NANOG and SOX2 [2] | HIF1α and VEGFA expression by immunocytochemistry [3] | excretion [4] | metabolism [4] | tissue distribution [4] |
| --- | --- | --- | --- | --- | --- | --- |
| O=c1[nH]cc(F)c(=O)[nH]1 [5FU, 5-Fluorouracil, reference compound] | stimulated | – | – | – | – | – |
| O=c1cc(-c2ccc(O)c(O)c2)oc2c([C@@H]3O[C@H](CO)[C@@H](O)[C@H](O)[C@H]3O)c(O)cc(O)c12 [Orientin] | – | downregulated | reduced | excreted primarily through urine | hepatic metabolism via CYP450 enzymes | widely distributed in different tissues |
